# Experimental data as given in patent publication US5434182A (priority 1993, dated 1995).
# Where “and” joins values, the source holds several entries; their conditions need not be identical. Identical values can stand only once. Like-named read-outs stand apart in the source and are kept apart here.
# How the values were obtained:
# Red Blood Cells = assay: Stability of red blood cells in whole human blood to added monoglyceride; type: cell-based; settings: 3 mg/ml
# Excerpt: Effect of Added Monoglyceride on RBCs in Human Blood.
# VSV [1] = assay: microbe, parasite or virus in culture; type: cell-based, vesicular stomatitis virus; settings: Vesicular stomatitis virus
# VSV [2] = assay: microbe, parasite or virus in culture; type: cell-based, vesicular stomatitis virus strain Indiana; settings: for minimal effective concentration: read-out: Lowest concentration causing ≥3.0 log10 reduction in virus titer
# Group B streptococcus = assay: Inactivation of bacteria by monoglycerides, Group B streptococcus; type: cell-based; settings: 2 mg/ml, read-out: Reduction of bacterial concentration, Group B streptococcus
# HSV-1 [3] = assay: microbe, parasite or virus in culture; type: cell-based, herpes simplex virus type 1 strain MacIntyre; settings: Human alphaherpesvirus 1, 0.5 h; 0.5 mg/ml, 37° C., 30 min; read-out: Reduction of virus titer, HSV-1
# VSV [4] = assay: microbe, parasite or virus in culture; type: cell-based, vesicular stomatitis virus; settings: for Reduction in VSV titer: 10 mM sodium taurocholate, human plasma; for log reduction at 4000 µM / log reduction at 7500 µM / log reduction at 15000 µM: Vesicular stomatitis virus, read-out: Reduction in VSV titer
# Total White Blood Cells = assay: Stability of white blood cells in whole human blood to added lipid; type: cell-based; parameters: unit not given here; settings: 15 mM, control 6.4
# Excerpt: Further testing has shown the effect of monoglyceride esters and ether on the total white blood cell concentration in whole human blood.
# Solubility = type: physicochemical; settings: vs 1-monodecanoyl-rac-glycerol
# VSV [5] = assay: microbe, parasite or virus in culture; type: cell-based, vesicular stomatitis virus strain Indiana; settings: Vesicular stomatitis virus, 0.5 h
# HSV-1 [6] = assay: microbe, parasite or virus in culture; type: cell-based, herpes simplex virus type 1 strain MacIntyre; settings: Human alphaherpesvirus 1, 0.5 h; 1 mg/ml, 37° C., 30 min; read-out: Reduction of virus titer, HSV-1
# sheep fibroblasts = assay: Disintegration of cell membranes, sheep fibroblasts (scanning electron microscopy); settings: 1 mg/ml, 37° C., 30 min
# VSV [7] = assay: microbe, parasite or virus in culture; type: cell-based, vesicular stomatitis virus strain Indiana; settings: for effect on viral particles (electron micrographs): 37° C., 30 min
# poliovirus = type: cell-based, Poliovirus type 1 strain Chat; settings: 8 mg/ml, 37° C., 30 min; control 10^4.7 TCID50
# Visna virus = assay: microbe, parasite or virus in culture; type: cell-based, Visna virus strain K796; settings: Visna-maedi virus, 0.5 h; 1 mg/ml, 37° C., 30 min; read-out: Reduction of virus titer, VV (visna virus)
# Vero cells = assay: Disintegration of cell membranes, Vero cells (scanning electron microscopy); settings: 1 mg/ml, 37° C., 30 min
# [8] = read-out: Reduction in VSV Titer, 7.5 mM, 0 mM sodium taurocholate, human serum
# [9] = read-out: Reduction in VSV Titer, 7.5 mM, 2 mM sodium taurocholate, human serum
# [10] = read-out: Reduction in VSV Titer, 7.5 mM, 4 mM sodium taurocholate, human serum
# [11] = read-out: Reduction in VSV Titer, 7.5 mM, 6 mM sodium taurocholate, human serum
# [12] = read-out: Reduction in VSV Titer, 7.5 mM, 8 mM sodium taurocholate, human serum
# [13] = read-out: Reduction in VSV Titer, 7.5 mM, 10 mM sodium taurocholate, human serum
# [14] = read-out: Reduction in VSV Titer, 7.5 mM, 12 mM sodium taurocholate, human serum
# [15] = Vesicular stomatitis virus, 0.5 h
# [16] = Vesicular stomatitis virus, 0.5 h, read-out: Reduction of virus titer, VSV
SMILES,log reduction at 7500 µM (VSV [1]; [8]),log reduction at 7500 µM (VSV [1]; [9]),log reduction at 7500 µM (VSV [1]; [10]),log reduction at 7500 µM (VSV [1]; [11]),log reduction at 7500 µM (VSV [1]; [12]),log reduction at 7500 µM (VSV [1]; [13]),log reduction at 7500 µM (VSV [1]; [14]),minimal effective concentration (VSV [2]; [15]),Reduction in VSV titer (VSV [4]; 4 mM),Reduction in VSV titer (VSV [4]; 7.5 mM),Reduction in VSV titer (VSV [4]; 15 mM),log reduction at 4000 µM (VSV [4]),log reduction at 7500 µM (VSV [4]),log reduction at 15000 µM (VSV [4]),Total White Blood Cells (Total White Blood Cells),further results
"CCCCCCCCCC(=O)OCC(O)CO (racemic) [Monocaprin (10:0), 1-Monodecanoyl-rac-glycerol]",1,≥ 5,≥ 5,≥ 5,≥ 5,≥ 5,≥ 5,500 µg/mL and 2000 µM,1.0 log10,≥ 4.0 log10,≥ 4.0 log10,0,1,≥ 4,0.7,lysis of RBCs in whole blood (Red Blood Cells): does not lyse RBCs in whole blood; log reduction at 500 µg/mL (VSV [2]; [16]): ≥ 4; active concentration relative to corresponding free acids (VSV [2]; monoglyceride vs free acid): ten times lower; log reduction at 2000 µg/mL (Group B streptococcus): 4.5; log reduction at 500 µg/mL (HSV-1 [3]): ≥ 3.7
"CCCCCCCC(=O)OCC(O)CO (racemic) [Monocaprylin (8:0), 1-Monocapryloyl-rac-glycerol]",≥ 1,≥ 3,4,≥ 5,≥ 5,≥ 5,≥ 5,2000 µg/mL and 9000 µM,2.0 log10,≥ 4.0 log10,≥ 4.0 log10,0,1,2,2.4,solubility in words (Solubility): more soluble; log reduction at 2000 µg/mL (VSV [2]; [16]): ≥ 4
"CCCCC/C=C\C/C=C\CCCCCCCC(=O)O [Linoleic (18:2), linoleic acid]",,,,,,,,,,,,,,,,"log reduction at 1000 µg/mL (VSV [5]; read-out: Reduction of virus titer, VSV): ≥ 4; minimal effective concentration (VSV [5]; read-out: lowest concentration which reduced the VSV titer by ≥4.0 log10 units): 1000 µg/mL and 3500 µM; log reduction at 1000 µg/mL (HSV-1 [6]): ≥ 4; effect on cell membranes (sheep fibroblasts): the cell membranes were partly or completely disintegrated; effect on viral particles (electron micrographs) (VSV [7]; 0.5 mg/ml): leakage of viral envelopes was produced; effect on viral particles (electron micrographs) (VSV [7]; 1 mg/ml): particle disintegration; log reduction at 500 µg/mL (VSV [7]; Vesicular stomatitis virus, 0.5 h, read-out: reduction in virus titer, 0.5 mg/ml, samples used for electron microscopy): 1; log reduction at 1000 µg/mL (VSV [7]; Vesicular stomatitis virus, 0.5 h, read-out: reduction in virus titer, 1 mg/ml, samples used for electron microscopy): ≥ 3; reduction of poliovirus titer (poliovirus): did not cause a significant reduction of virus titer; log reduction at 1000 µg/mL (Visna virus): ≥ 3.2; effect on cell membranes (Vero cells): the cell membranes were partly or completely disintegrated"
